Experiments:
[1] = tested on: SCLC cells (RPP631, DMS79, GLC16, NCI-H69, NCI-H82); experiment: Cell viability assay (CCK-8); assay type: cell-based, mouse, human
Protocol: Cells were seeded in 96-well plates (0.01-0.02×10^6 cells/well) in media and treated with YKL-5-124 at indicated concentrations and time points. Cell viability was measured using the MTS-based CCK-8 assay (Dojindo, Cat #CK04). Absorption at 450 nm was measured 3 hr after addition of CCK-8 reagent to cells.

RPP631 cells [2] = experiment: EdU and MCM2 imaging by STORM; assay type: cell-based, mouse; details: 100 nM, 48 and 72 hr
Protocol: RPP631 cells were incubated in the presence of 100 nM YKL-5-124 for 48-72 hr. EdU was pulsed during the last 30 minutes of YKL-5-124 treatment. Treated cells were pre-extracted using 0.5% Triton in CSK buffer (10 mM Hepes, 300 mM Sucrose, 100 mM NaCl, and 3 mM MgCl2, pH=7.6) for 10 minutes, and fixed with paraformaldehyde (4%) for 30 minutes. Cells were then rinsed 3 times with PBS and blocked (2% glycine, 2% BSA, 0.2% gelatin, and 50 mM NH4Cl in PBS) overnight at 4° C. for further staining. […]
STORM imaging was performed on a customized inverted microscope. […] Cell samples were sequentially illuminated with 639 and 750 laser lines and the emitted fluorescence was collected by the same objective with a 2× magnification tube lens (Diagnostic Instruments). The fluorescence was then filtered by single band filters (Semrock FF01-676/37 and FF02-809/81) switched in a filter wheel accordingly. […]
Each 2000-frame single-molecule image stack was submitted to a home-built software for precise single-molecule localization. […] The fitting accuracy was evaluated using Cramer-Rao Lower Bound (CRLB). Note that the patterned read-out noise of the sCMOS camera was calibrated before imaging. Such read-out noise for each pixel was approximated into a Gaussian distribution and convolved with the Poisson shot noise for MLE fitting. […] The number of fluorophores is proportional to the quantity of EdU and MCM2. […]

RPP631 cells [3] = experiment: Bulk RNA-sequencing and GSEA; assay type: cell-based, mouse; details: 48 hr
Protocol: Paired-end reads were aligned to mouse mm10 genome using STAR (v2.5.2b). Reads with good mapping quality (MAPQ>30) that aligned to genomic exons were counted using featureCounts (mm10 Ensembl 93) to generate a table with counts for each gene. Differential gene expression analysis was performed using the R package DESeq2 using the lfcShrink function. […] Gene set enrichment analysis (GSEA) was performed on a list of genes ranked from high to low DESeq2 estimated fold-change using the GSEAPreRanked function with enrichment statistic classic and 1000 permutations.

RPP orthotopic model = experiment: Treatment study in RPP orthotopic SCLC model; assay type: in vivo, mouse
Protocol: (§1) All animal studies were reviewed and approved by the Institutional Animal Care and Use Committee (IACUC) at the New York University Langone Health (NYULH) and Dana-Farber Cancer Institute (DFCI). From 6 weeks of age, mice were induced with adenovirus-Cre recombinase (Ad-Cre) by intratracheal intubation to allow cre-lox-mediated recombination of floxed Rb1, p53 and p130 alleles. For syngeneic orthotopic models, ultrasound-guided transthoracic injection was performed using 200,000 RPP631, RP or RPP-MYC cells in 30 μL PBS directly into the lung of 6 to S-week-old C57BL/6 (Jackson Laboratory, Stock No: 000664). For OT-IT cell assay, OT-I mice were purchased from the Jackson Laboratory (Stock No: 003S31). Both males and females mice were used and all mice were maintained in accordance with the respective NYULH and DFCI on the care, welfare, and treatment of laboratory animals. […]
(§2) Animals were anesthetized with isoflurane to perform MRI of the lung field using BioSpec USR70/30 horizontal bore system (Bruker) to scan 24 consecutive sections. Tumor volumes within the whole lung were quantified using 3-D slicer software to reconstruct MRI volumetric measurements as described previously. […]

RPP-MYC orthotopic model = experiment: Treatment study in RPP-MYC orthotopic SCLC model; assay type: in vivo, mouse
Protocol: as §1, §2

RPP GEMMs = experiment: Treatment study in autochthonous RPP GEMMs; assay type: in vivo, mouse
Protocol: as §1, §2

C=CC(=O)Nc1ccc(C(=O)Nc2n[nH]c3c2CN(C(=O)N[C@H](CN(C)C)c2ccccc2)C3(C)C)cc1 [YKL-5-124]
growth rate (cell viability) compared to control cells ([1]; all tested concentrations, up to 7 days): significant reduction | kind of growth effect ([1]; up to day 7): cytostatic effect with a tendency of cytotoxic effects at longer time points | EdU content in each nucleus and in each focus (RPP631 cells [2]): dramatic decrease | MCM2 content in each nucleus and replication focus (RPP631 cells [2]): significant decline | expression of pro-inflammatory cytokines and chemokines incl. TNFα pathway components and Cxcl10 (heatmaps) (RPP631 cells [3]): increased expression | genes within GSEA terms associated with cell cycle, mitosis and E2F targets (RPP631 cells [3]): downregulated | expression of SCLC SE-associated genes (RPP631 cells [3]; compared with THZ1): little effect | 'Interferon gamma response', 'TNFα signaling' and 'Inflammatory response' Hallmarks signatures (GSEA) (RPP631 cells [3]; three of the top five): most positively regulated | added median survival benefit (RPP orthotopic model; RPP model, vs control): approximately 30 days | tumor response / tumor growth (MRI tumor volume) (RPP orthotopic model; RPP orthotopic model, 2- to 3-week): significant tumor response | tumor response / tumor growth (MRI tumor volume) (RPP-MYC orthotopic model): notably delayed tumor growth | mice with more than 50% increase of tumor burden (RPP GEMMs; 3-week time point): none | median overall survival (RPP GEMMs; RPP GEMMs): 56 days

— US20230114207A1, “THE COMBINATION OF CYCLIN DEPENDENT KINASE 7 INHIBITOR AND IMMUNOTHERAPY FOR TREATMENT OF CANCER” (Dana-Farber Cancer Institute, Inc., priority 2019, published 2023)
